Columns and labels:
[1] = system: IL-23 release; assay: IL-23 release from human dendritic cells; format: cell-based; settings: Dendritic cell, PGE2-stimulated, 24 h
Protocol: PBMCs were purified using Histopaque (Sigma-Aldrich, St. Louis, MO, USA). CD14^+ cells were positively selected in a magnetic field (magnetic-activated cell sorting [MACS]; Miltenyi Biotec, Bergisch Gladbach, Germany). Purified CD14^+ cells were subsequently cultured for 7 days in differentiation medium (RPMI 1640 + 10% FBS, granulocyte-macrophage colony-stimulating factor 50 ng/ml and IL-4 100 ng/ml) and then stimulated with LPS (10 ng/ml), R848 2.5 μg/ml and PGE2 10 nM for 24 h in the presence of CR6086 (0.01–30 μM) or naproxen (1–30 μM). IL-23 release was measured by enzyme-linked immunosorbent assay (ELISA) (R&D Systems, Minneapolis, MN, USA).

[2] = system: IL-17 release; assay: IL-17 release from human Th17 cells; format: cell-based; settings: Homo sapiens; at 1 μM; 48 and 72 h
Protocol: PBMCs were purified using Histopaque. CD4^+CD45^+ naive T cells were indirectly selected in a magnetic field (MACS; Miltenyi Biotec). Purified CD4^+ cells were subsequently cultured for 7 days in differentiation medium (RPMI 1640 + FBS 10%, IL-6 30 ng/ml, transforming growth factor [TGF]-β 2.25 ng/ml, IL-23 30 ng/ml, IL-1β 20 ng/ml, anti-interferon (IFN)-γ 1 ng/ml and anti-IL-4 2.5 ng/ml). Th17 cell expansion was stimulated by addition of anti-CD3/[…]anti-CD28 beads to the medium with a cell-to-beads ratio of 1:2. Th17 cells were stimulated with IL-6 30 ng/ml, TGF-β 2.25 ng/ml, IL-23 30 ng/ml, IL-1β 20 ng/ml and PGE2 10 nM for 48 h in the presence of CR6086 (0.03–10 μM) or naproxen (1–10 μM). IL-17 release was measured by ELISA (Abcam, Cambridge, UK).

[3] = system: arthritic mice (collagen-induced arthritis model); assay: CIA in mice, second study: serum cytokines and signal limb histology; format: in vivo, mouse; settings: 10 days
[4] = molecular target: CysLT2 (Cys-LTs) (Homo sapiens, UniProt Q9NS75); assay: Eicosanoid receptor CysLT2 binding; settings: [^3H]LTD4, HEK-293 cells, read-out: CR6086 Activity at 10µM
Sequence of CysLT2 (Cys-LTs) (Q9NS75 whole entry, species assumed): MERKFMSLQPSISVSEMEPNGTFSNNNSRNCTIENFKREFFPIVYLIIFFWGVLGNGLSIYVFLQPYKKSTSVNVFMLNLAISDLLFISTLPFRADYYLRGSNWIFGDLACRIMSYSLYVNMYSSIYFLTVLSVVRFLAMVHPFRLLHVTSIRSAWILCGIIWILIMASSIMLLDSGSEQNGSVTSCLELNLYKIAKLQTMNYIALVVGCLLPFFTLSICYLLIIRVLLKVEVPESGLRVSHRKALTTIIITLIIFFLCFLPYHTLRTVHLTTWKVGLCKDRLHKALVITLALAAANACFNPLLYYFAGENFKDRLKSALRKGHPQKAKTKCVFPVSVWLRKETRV

[5] = molecular target: A2A (Homo sapiens, UniProt P29274); assay: Adenosine receptor A2A binding; settings: [^3H]CGS 21680, Human recombinant HEK-293 cells
[6] = system: α1 (non-selective); assay: Adrenergic receptor α1 binding; settings: [^3H]prazosin, Rat cerebral cortex
[7] = molecular target: β2 (Homo sapiens, UniProt P07550); assay: Adrenergic receptor β2 binding; settings: [^3H](-)CGP 12177, Human recombinant CHO cells, read-out: CR6086 Activity at 10µM
[8] = molecular target: BZD (peripheral) (Rattus norvegicus, UniProt P16257); assay: Benzodiazepine receptor (peripheral) binding; settings: [^3H]PK 11195, Rat heart, read-out: CR6086 Activity at 10µM
[9] = molecular target: M1 (Homo sapiens, UniProt P11229); assay: Muscarinic acetylcholine receptor M1 binding; settings: [^3H]pirenzepine, Human recombinant CHO cells, read-out: CR6086 Activity at 10µM
[10] = molecular target: M2 (Homo sapiens, UniProt P08172); assay: Muscarinic acetylcholine receptor M2 binding; settings: [^3H]AF-DX 384, Human recombinant CHO cells, read-out: CR6086 Activity at 10µM
Sequence of M2 (P08172 whole entry): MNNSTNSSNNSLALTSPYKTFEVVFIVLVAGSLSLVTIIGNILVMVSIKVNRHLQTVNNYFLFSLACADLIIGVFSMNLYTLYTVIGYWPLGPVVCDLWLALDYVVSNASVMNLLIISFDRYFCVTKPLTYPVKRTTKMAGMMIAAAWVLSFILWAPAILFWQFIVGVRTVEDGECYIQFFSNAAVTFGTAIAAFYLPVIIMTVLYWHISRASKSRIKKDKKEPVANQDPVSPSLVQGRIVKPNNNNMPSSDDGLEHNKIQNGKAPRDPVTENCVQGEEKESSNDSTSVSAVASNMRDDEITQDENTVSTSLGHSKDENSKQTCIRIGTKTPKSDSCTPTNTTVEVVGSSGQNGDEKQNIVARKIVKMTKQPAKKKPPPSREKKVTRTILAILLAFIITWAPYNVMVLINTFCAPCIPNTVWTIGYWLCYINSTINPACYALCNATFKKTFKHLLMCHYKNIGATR

[11] = molecular target: 5-HT2A (Homo sapiens, UniProt P28223); assay: Serotonin receptor 5-HT2A binding; settings: [^3H]ketanserin, Human recombinant HEK-293 cells, read-out: CR6086 Activity at 10µM
[12] = molecular target: 5-HT2C (Homo sapiens, UniProt P28335); assay: Serotonin receptor 5-HT2C binding; settings: [^3H]mesulergine, Human recombinant HEK-293 cells, read-out: CR6086 Activity at 10µM
Sequence of 5-HT2C (P28335 33-458): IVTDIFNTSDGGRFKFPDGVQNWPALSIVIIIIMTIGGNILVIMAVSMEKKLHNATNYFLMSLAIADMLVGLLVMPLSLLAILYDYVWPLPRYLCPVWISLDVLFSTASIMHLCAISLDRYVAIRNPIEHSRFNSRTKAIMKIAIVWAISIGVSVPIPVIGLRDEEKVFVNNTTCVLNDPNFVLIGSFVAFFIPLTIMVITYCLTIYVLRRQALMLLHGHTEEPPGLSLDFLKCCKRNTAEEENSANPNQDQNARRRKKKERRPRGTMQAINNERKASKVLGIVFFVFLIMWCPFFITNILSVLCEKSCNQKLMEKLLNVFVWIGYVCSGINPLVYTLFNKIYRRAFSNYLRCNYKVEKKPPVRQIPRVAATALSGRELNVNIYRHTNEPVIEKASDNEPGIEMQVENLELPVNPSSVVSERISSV

[13] = molecular target: 5-HT6 (Homo sapiens, UniProt P50406); assay: Serotonin receptor 5-HT6 binding; settings: [^3H]LSD, Human recombinant CHO cells, read-out: CR6086 Activity at 10µM
Sequence of 5-HT6 (P50406 whole entry): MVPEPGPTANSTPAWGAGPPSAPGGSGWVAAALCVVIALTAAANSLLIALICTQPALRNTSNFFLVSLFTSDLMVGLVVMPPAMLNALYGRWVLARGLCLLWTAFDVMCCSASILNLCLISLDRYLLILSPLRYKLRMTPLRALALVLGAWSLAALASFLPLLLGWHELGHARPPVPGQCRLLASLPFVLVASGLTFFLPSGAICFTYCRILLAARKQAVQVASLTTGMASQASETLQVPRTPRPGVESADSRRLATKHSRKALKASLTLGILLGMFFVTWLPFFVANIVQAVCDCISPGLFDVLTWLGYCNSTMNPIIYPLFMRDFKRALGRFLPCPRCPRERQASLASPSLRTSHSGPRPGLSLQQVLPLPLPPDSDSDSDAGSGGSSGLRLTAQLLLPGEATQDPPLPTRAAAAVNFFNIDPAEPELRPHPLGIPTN

[14] = molecular target: H1 (Homo sapiens, UniProt P35367); assay: Histamine receptor H1 binding; settings: [^3H]pyrilamine, Human recombinant HEK-293 cells, read-out: CR6086 Activity at 10µM
Sequence of H1 (P35367 whole entry): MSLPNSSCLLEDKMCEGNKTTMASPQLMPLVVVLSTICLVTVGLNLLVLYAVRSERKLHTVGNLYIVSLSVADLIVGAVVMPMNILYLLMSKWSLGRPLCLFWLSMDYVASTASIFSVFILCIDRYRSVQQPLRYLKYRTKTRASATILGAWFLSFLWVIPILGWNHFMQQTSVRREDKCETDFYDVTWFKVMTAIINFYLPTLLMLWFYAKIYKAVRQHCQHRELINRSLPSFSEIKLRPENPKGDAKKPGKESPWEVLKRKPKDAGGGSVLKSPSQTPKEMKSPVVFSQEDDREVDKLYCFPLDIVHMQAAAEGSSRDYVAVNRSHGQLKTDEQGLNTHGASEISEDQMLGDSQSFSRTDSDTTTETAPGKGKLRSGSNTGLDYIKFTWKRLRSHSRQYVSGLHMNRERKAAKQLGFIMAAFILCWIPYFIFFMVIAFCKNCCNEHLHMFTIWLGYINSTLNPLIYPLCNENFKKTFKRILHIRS

[15] = molecular target: ETB (Homo sapiens, UniProt P24530); assay: Endothelin receptor ETB binding; settings: [^125I]endothelin-1, Human recombinant CHO cells, read-out: CR6086 Activity at 10µM
Sequence of ETB (P24530 27-442): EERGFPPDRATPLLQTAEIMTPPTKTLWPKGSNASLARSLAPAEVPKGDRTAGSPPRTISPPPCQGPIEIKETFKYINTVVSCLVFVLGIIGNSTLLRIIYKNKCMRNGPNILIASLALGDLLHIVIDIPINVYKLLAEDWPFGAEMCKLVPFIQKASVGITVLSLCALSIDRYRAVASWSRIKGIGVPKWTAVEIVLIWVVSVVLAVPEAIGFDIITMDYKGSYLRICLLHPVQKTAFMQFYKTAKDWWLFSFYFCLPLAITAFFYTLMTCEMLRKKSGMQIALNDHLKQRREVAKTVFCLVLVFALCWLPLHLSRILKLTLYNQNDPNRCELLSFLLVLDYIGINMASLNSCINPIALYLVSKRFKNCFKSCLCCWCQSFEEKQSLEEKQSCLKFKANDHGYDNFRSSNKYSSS

[16] = molecular target: Y2 (Homo sapiens, UniProt P49146); assay: Neuropeptide Y receptor Y2 binding; settings: [^125I]peptide YY, KAN-TS cells, read-out: CR6086 Activity at 10µM
Sequence of Y2 (P49146 whole entry): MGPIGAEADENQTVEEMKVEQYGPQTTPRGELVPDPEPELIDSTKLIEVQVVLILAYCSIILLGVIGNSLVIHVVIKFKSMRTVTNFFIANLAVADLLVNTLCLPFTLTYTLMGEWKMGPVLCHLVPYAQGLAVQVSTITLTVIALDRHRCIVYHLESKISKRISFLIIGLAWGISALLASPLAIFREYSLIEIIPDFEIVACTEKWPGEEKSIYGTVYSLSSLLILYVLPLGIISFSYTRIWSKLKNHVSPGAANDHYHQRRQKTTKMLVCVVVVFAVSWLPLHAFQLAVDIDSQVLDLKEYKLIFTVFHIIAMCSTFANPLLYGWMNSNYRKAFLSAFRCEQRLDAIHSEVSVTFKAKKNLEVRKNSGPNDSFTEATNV

[17] = molecular target: CGRP (Homo sapiens, UniProt O60894+Q16602); assay: CGRP receptor binding; settings: [^125I]hCGRPα, Human recombinant CHO cells, read-out: CR6086 Activity at 10µM
Sequence of CGRP (Q16602 23-461): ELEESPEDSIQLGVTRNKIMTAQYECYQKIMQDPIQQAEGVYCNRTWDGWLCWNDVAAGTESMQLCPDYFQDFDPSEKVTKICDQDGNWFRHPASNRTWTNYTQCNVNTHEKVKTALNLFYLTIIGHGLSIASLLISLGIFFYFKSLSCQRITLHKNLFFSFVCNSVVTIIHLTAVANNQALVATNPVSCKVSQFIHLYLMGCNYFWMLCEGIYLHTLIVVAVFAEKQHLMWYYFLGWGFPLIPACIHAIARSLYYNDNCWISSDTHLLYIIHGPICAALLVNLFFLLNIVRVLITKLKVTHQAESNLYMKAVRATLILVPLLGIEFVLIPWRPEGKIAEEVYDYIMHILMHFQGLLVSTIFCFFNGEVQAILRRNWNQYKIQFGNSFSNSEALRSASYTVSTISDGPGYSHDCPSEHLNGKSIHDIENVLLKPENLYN
Sequence of CGRP (O60894 27-148): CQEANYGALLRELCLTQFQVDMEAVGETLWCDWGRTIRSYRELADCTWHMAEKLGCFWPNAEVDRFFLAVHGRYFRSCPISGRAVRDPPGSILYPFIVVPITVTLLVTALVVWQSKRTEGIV

[18] = system: sst (non-selective); assay: sst receptor (non-selective) binding; settings: [^125I]Tyr^11-somatostatin-14, AtT-20 cells
[19] = system: TNF-α; assay: TNF-α receptor binding; settings: [^125I]TNF-α, U-937 cells
[20] = molecular target: GR (Homo sapiens, UniProt P04150); assay: Nuclear receptor GR binding; settings: [^3H]dexamethasone, IM-9 cells (cytosol), read-out: CR6086 Activity at 10µM
Sequence of GR (P04150 whole entry): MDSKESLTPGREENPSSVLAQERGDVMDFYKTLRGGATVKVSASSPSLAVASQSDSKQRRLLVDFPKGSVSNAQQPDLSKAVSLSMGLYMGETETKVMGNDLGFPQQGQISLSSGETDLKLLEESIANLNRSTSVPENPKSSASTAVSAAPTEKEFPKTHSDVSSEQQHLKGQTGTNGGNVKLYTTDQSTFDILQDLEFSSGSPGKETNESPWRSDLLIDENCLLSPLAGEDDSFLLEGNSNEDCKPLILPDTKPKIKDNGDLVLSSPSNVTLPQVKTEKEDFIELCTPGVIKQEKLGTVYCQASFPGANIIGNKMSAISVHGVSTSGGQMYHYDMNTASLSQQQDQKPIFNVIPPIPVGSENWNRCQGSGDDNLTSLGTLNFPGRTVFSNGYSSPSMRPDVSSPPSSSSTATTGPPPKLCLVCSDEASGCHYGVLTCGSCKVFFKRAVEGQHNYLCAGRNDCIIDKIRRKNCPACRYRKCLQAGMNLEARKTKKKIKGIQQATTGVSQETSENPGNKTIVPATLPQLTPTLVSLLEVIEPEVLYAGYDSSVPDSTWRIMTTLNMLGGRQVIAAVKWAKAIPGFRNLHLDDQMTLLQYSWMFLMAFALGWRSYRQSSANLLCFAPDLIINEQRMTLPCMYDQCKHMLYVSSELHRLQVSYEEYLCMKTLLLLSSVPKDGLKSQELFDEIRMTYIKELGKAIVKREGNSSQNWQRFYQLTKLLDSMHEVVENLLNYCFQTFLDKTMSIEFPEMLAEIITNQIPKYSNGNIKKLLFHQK

[21] = system: Cl^- channel (GABA-gated); assay: Ion channel Cl- (GABA-gated) binding; settings: [^35S]TBPS, Rat cerebral cortex
[22] = molecular target: Dopamine transporter (Homo sapiens, UniProt Q01959); assay: Dopamine transporter binding; settings: [^3H]BTCP, Human recombinant CHO cells, read-out: CR6086 Activity at 10µM
Sequence of Dopamine transporter (Q01959 whole entry): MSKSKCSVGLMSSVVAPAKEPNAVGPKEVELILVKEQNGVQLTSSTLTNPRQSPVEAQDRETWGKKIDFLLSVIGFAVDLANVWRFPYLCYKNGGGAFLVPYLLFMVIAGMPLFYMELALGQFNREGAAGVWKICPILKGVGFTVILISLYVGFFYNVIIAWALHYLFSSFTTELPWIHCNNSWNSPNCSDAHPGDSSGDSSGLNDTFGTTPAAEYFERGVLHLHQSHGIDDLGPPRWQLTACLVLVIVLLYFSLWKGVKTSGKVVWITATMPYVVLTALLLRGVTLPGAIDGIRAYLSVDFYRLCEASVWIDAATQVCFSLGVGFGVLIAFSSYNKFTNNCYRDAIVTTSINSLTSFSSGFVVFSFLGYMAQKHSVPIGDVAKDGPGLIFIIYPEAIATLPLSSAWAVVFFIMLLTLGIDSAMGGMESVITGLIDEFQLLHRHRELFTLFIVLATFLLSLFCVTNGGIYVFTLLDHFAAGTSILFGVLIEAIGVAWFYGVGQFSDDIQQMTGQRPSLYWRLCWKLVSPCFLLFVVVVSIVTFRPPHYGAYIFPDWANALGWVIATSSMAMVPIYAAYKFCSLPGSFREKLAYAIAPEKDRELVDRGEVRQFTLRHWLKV

[23] = 30 mg/kg oral daily, mean ± SEM
[24] = 60 mg/kg oral daily, mean ± SEM

O=C([O-])c1ccc(C2(NC(=O)[C@H]3CC4(CCN3Cc3ccc(C(F)(F)F)cc3)CC4)CC2)cc1.[Na+] [CR6086, Sodium (R)-4-(1-(6-(4-(trifluoromethyl)benzyl)-6-azaspiro[2.5]octane-5-carboxamido)cyclopropyl)benzoate]
IC50 [1]: 608 nM
inhibition at 1 µM [2]: 100%
IFNγ serum concentration [3, 23]: 1.79 ± 0.32 pg/mL
IL-10 serum concentration [3, 23]: 16.17 ± 1.95 pg/mL
IL-17 serum concentration [3, 23]: 2.36 ± 0.62 pg/mL
TNFα serum concentration [3, 23]: 34.37 ± 2.21 pg/mL
IL-10 serum concentration [3, 24]: 18.16 ± 2.65 pg/mL
IL-17 serum concentration [3, 24]: 0.92 ± 0.20 pg/mL
TNFα serum concentration [3, 24]: 33.67 ± 3.58 pg/mL
effect on IL-6 mean serum concentrations ([3]; 60 mg/kg oral once daily): returned towards normal levels
histological scores of the signal limb ([3]; 30 and 60 mg/kg oral once daily): acts as a disease modifier
inhibition at 10 µM [4]: < 20%
CR6086 Activity at 10µM [5]: IN (IN = < 20% displacement or inhibition (all tables))
CR6086 Activity at 10µM [6]: IN (IN = < 20% displacement or inhibition (all tables))
inhibition at 10 µM [7]: < 20%
inhibition at 10 µM [8]: < 20%
inhibition at 10 µM [9]: < 20%
inhibition at 10 µM [10]: < 20%
inhibition at 10 µM [11]: < 20%
inhibition at 10 µM [12]: < 20%
inhibition at 10 µM [13]: < 20%
inhibition at 10 µM [14]: < 20%
inhibition at 10 µM [15]: < 20%
inhibition at 10 µM [16]: < 20%
inhibition at 10 µM [17]: < 20%
CR6086 Activity at 10µM [18]: IN (IN = < 20% displacement or inhibition (all tables))
CR6086 Activity at 10µM [19]: IN (IN = < 20% displacement or inhibition (all tables))
inhibition at 10 µM [20]: < 20%
CR6086 Activity at 10µM [21]: IN (IN = < 20% displacement or inhibition (all tables))
inhibition at 10 µM [22]: < 20%

— publication PMC5831858, “Pharmacological characterisation of CR6086, a potent prostaglandin E2 receptor 4 antagonist, as a new potential disease-modifying anti-rheumatic drug” (Arthritis Research & Therapy, 2018)
